Results reported in patent US11702418B2, “SOS1 inhibitors” (priority 2019, dated 2023).
Counter-ions that a name gives are not always drawn.

System: pERK in MKN1 cells
Test: cells
Assay type: cell-based
Conditions: Homo sapiens, MKN-1, pERK inhibition, In-Cell Western; MKN1 or H358 cells (Table 24 does not say which); 0.5-1 hour incubation; read-out: IC50

Cc1c([C@@H](C)Nc2nncc3ccc(N4CC5CCN(C)CC5C4)cc23)cccc1C(F)(F)F (stereo partly drawn) [Example 1-31, N-((R)-1-(2-methyl-3-(trifluoromethyl)phenyl)ethyl)-7-(5-methyloctahydro-2H-pyrrolo[3,4-c]pyridin-2-yl)phthalazin-1-amine] and Cc1c([C@@H](C)Nc2nncc3ccc(N4CCOCC4C)cc23)cccc1C(F)(F)F (stereo partly drawn) [Example 1-27, N-((R)-1-(2-methyl-3-(trifluoromethyl)phenyl)ethyl)-7-(3-methylmorpholino)phthalazin-1-amine] are within 1.5-fold of each other in IC50: 83 nM for the first, 61 nM for the second.

Cc1c([C@@H](C)Nc2nncc3ccc(N4CCn5c(nc6c5CCCC6)C4)cc23)cccc1C(F)(F)F [Example 1-45, (R)-7-(3,4,6,7,8,9-hexahydrobenzo[4,5]imidazo[1,2-a]pyrazin-2(1H)-yl)-N-(1-(2-methyl-3-(trifluoromethyl)phenyl)ethyl)phthalazin-1-amine] and Cc1c([C@@H](C)Nc2nncc3ccc(N4CCn5c(nc6ccccc65)C4)cc23)cccc1C(F)(F)F [Example 1-46, (R)-7-(3,4-dihydrobenzo[4,5]imidazo[1,2-a]pyrazin-2(1H)-yl)-N-(1-(2-methyl-3-(trifluoromethyl)phenyl)ethyl)phthalazin-1-amine] are within 1.5-fold of each other in IC50: 335 nM for the first, 341 nM for the second.

First: Cc1c([C@@H](C)Nc2nnc(C)c3ccc(-n4cccn4)cc23)cccc1C(F)(F)F [Example 10-17, (R)-4-methyl-N-(1-(2-methyl-3-(trifluoromethyl)phenyl)ethyl)-7-(1H-pyrazol-1-yl)phthalazin-1-amine]
Second: Cc1c([C@@H](C)Nc2nnc(C)c3cnc(N4C[C@@H](C)O[C@H](C)C4)cc23)cccc1C(F)(F)F [Example 12-5]
The IC50 of the first is 3.1-fold higher: 2630 nM for the first, 850 nM for the second. The second is the more potent here.

First: Cc1nnc(N[C@H](C)c2ccc(Cl)cc2Cl)c2cc(N3CCOCC3)ccc12 [Example 10-20, (R)-N-(1-(2,4-dichlorophenyl)ethyl)-4-methyl-7-morpholinophthalazin-1-amine]
Second: COCCN1CCC(Oc2ccc3cnnc(N[C@H](C)c4cccc(C(F)(F)F)c4C)c3c2)CC1 [Example 2-9, (R)-7-((1-(2-methoxyethyl)piperidin-4-yl)oxy)-N-(1-(2-methyl-3-(trifluoromethyl)phenyl)ethyl)phthalazin-1-amine]
The IC50 of the first is 9.6-fold higher: 1650 nM for the first, 172 nM for the second. The second is the more potent here.

Target: recombinant human SOS1 polypeptide (amino acids 560-1049) (Homo sapiens (Human), UniProt Q07889)
Sequence (Q07889 560-1049): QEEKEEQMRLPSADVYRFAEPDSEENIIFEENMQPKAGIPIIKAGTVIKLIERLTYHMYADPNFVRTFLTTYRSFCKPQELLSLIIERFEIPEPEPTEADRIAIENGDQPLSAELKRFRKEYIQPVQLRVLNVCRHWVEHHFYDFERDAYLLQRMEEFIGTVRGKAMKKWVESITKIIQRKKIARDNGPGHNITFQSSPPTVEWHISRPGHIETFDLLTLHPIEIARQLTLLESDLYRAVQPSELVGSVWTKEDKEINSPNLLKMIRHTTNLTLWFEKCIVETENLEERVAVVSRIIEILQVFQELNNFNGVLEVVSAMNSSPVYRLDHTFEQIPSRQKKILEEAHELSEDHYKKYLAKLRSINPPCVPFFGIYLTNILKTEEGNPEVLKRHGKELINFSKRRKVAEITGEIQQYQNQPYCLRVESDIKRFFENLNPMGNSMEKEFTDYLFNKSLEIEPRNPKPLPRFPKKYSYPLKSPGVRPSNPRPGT
Test: biochemical
Assay type: binding
Conditions: HTRF displacement, Cy5 labelled tracer, Morrison equation for competitive binding; read-out: Ki, Inhibition of Labeled Tracer Binding to SOS1

Going from CNCc1nnc(N[C@H](C)c2cccc(C#N)c2C)c2cc(N3C[C@H]4C[C@@H]3CO4)ncc12 [Example 14-3, 3-((R)-1-((7-((1R,4R)-2-oxa-5-azabicyclo[2.2.1]heptan-5-yl)-4-((methylamino)methyl)pyrido[3,4-d]pyridazin-1-yl)amino)ethyl)-2-methylbenzonitrile] to Cc1nnc(N[C@H](C)c2cccc(C#N)c2C(F)(F)F)c2cc(N3C[C@H]4C[C@@H]3CO4)ncc12 [Example 12-127], the Ki falls from 14.5 nM to 6.08 nM (2.4-fold).

Compared with Cc1c([C@@H](C)Nc2nnc(C)c3cnc(N4CCN5CCOC[C@@H]5C4)cc23)cc(F)cc1C(F)(F)F [Example 12-112], Cc1nnc(N[C@H](C)c2cccc(C(F)(F)F)c2F)c2cc(N3CCN4CCOC[C@@H]4C3)ncc12 [Example 12-63] is 2.7-fold lower in Ki: 2.2 nM for the first, 0.83 nM for the second. The second binds more tightly here.

Cc1c(F)cccc1[C@@H](C)Nc1nnc(C)c2cnc(N3CC4CC(C3)O4)cc12 [Example 12-126] and Cc1nnc(N[C@H](C)c2cccc(F)c2F)c2cc(N3CC4CC(C3)O4)ncc12 [Example 12-98] are within 1.5-fold of each other in Ki: 14 nM for the first, 19 nM for the second.

Cc1c([C@@H](C)Nc2nnc(C)c3cnc(N4CC5CC(C4)O5)cc23)cc(F)cc1C(F)(F)F [Example 12-113] and Cc1c([C@@H](C)Nc2nnc(C)c3cnc(N4C[C@H]5C[C@@H]4CO5)cc23)cc(F)cc1C(F)(F)F [Example 12-109] are within 1.5-fold of each other in Ki: 2.62 nM for the first, 2.61 nM for the second.

Cc1c(C#N)cccc1[C@@H](C)Nc1nnc(C)c2cc(F)c(N3CCN(C)CC3)cc12 [Example 18-3, (R)-3-(1-((6-fluoro-4-methyl-7-(4-methylpiperazin-1-yl)phthalazin-1-yl)amino)ethyl)-2-methylbenzonitrile] and Cc1c(C#N)cccc1[C@@H](C)Nc1nnc(C)c2cnc(N3CCN4CCC[C@@H]4C3)cc12 [Example 12-73] are within 1.5-fold of each other in Ki: 1.37 nM for the first, 1.67 nM for the second.

Going from Cc1c(C#N)cc(F)cc1[C@@H](C)Nc1nnc(C)c2cnc(N3CC(C)(N(C)C)C3)cc12 [Example 12-108] to Cc1nnc(N[C@H](C)c2cc(F)cc(C#N)c2F)c2cc(N3CC(C)(N(C)C)C3)ncc12 [Example 12-122], the Ki rises from 22.1 nM to 170 nM (7.7-fold).

Cc1c(C#N)cccc1[C@@H](C)Nc1nnc(C)c2cnc(N3CC(C)(N4CCOCC4)C3)cc12 [Example 12-87] and Cc1c(C#N)cccc1[C@@H](C)Nc1nnc(C)c2cnc(N3CC4(CCOC4)C3)cc12 [Example 12-71] are within 1.5-fold of each other in Ki: 3.17 nM for the first, 4.48 nM for the second.

Cc1c(C#N)cccc1[C@@H](C)Nc1nnc(C)c2cnc(N3CC4(CCCN4C)C3)cc12 [Example 12-88] and Cc1c(C#N)cccc1[C@@H](C)Nc1nnc(C)c2ccc(N3CC4(CCCN4C)C3)cc12 [Example 10-84, (R)-2-methyl-3-(1-((4-methyl-7-(5-methyl-2,5-diazaspiro[3.4]octan-2-yl)phthalazin-1-yl)amino)ethyl)benzonitrile] are within 1.5-fold of each other in Ki: 2.03 nM for the first, 2.01 nM for the second.

Going from CNCc1cccc([C@@H](C)Nc2nnc(C)c3ccc(N4CCOCC4)cc23)c1C [Example 6-8, (R)-4-methyl-N-(1-(2-methyl-3-((methylamino)methyl)phenyl)ethyl)-7-morpholinophthalazin-1-amine] to Cc1c(C#N)cccc1[C@@H](C)Nc1nnc(C)c2ccc(N3CCN4CCC[C@@H]4C3)cc12 [Example 10-81, 3-((R)-1-((7-((R)-hexahydropyrrolo[1,2-a]pyrazin-2(1H)-yl)-4-methylphthalazin-1-yl)amino)ethyl)-2-methylbenzonitrile], the Ki falls from 39.2 nM to 0.9 nM (44-fold).

Going from Cc1nnc(N[C@H](C)c2cc(F)cc(C#N)c2F)c2cc(N3CC4CC(C3)O4)ncc12 [Example 12-121] to Cc1nnc(N[C@H](C)c2cc(F)cc(C#N)c2F)c2cc(N3C[C@H]4C[C@@H]3CO4)ncc12 [Example 12-114], the Ki rises from 39.2 nM to 69.3 nM (1.8-fold).

Cc1nnc(N[C@H](C)c2cccc(C(F)(F)F)c2F)c2cc(N3CCN(C)CC3)ncc12 [Example 12-67] and CCN1CCN(c2cc3c(N[C@H](C)c4cccc(C(F)(F)F)c4F)nnc(C)c3cn2)CC1 [Example 12-68] are within 1.5-fold of each other in Ki: 0.36 nM for the first, 0.37 nM for the second.

Going from Cc1nnc(N[C@H](C)c2cccc(F)c2Cl)c2cc(N3CC4CC(C3)O4)ncc12 [Example 12-77] to Cc1cccc([C@@H](C)Nc2nnc(C)c3cnc(N4CC5CC(C4)O5)cc23)c1F [Example 12-134], the Ki falls from 28.5 nM to 7.1 nM (4-fold).

Going from Cc1nnc(N[C@H](C)c2cccc(F)c2Cl)c2cc(N3CCN4CCOC[C@@H]4C3)ncc12 [Example 12-74] to Cc1nnc(N[C@H](C)c2cccc(C(F)F)c2F)c2cc(N3CCN4CCOC[C@@H]4C3)ncc12 [Example 12-100], the Ki falls from 10.5 nM to 1.07 nM (9.8-fold). The second binds more tightly here.

Compared with Cc1nnc(N[C@H](C)c2cc(N)cc(C(F)(F)F)n2)c2cc(N3CC(C)(N(C)C)C3)ncc12 [Example 16-11, (R)-N-(1-(4-amino-6-(trifluoromethyl)pyridin-2-yl)ethyl)-7-(3-(dimethylamino)-3-methylazetidin-1-yl)-4-methylpyrido[3,4-d]pyridazin-1-amine], Cc1nnc(N[C@H](C)c2cc(N)cc(C(F)(F)F)n2)c2cc(N3CCN(C)CC3)ncc12 [Example 16-12, (R)-N-(1-(4-amino-6-(trifluoromethyl)pyridin-2-yl)ethyl)-4-methyl-7-(4-methylpiperazin-1-yl)pyrido[3,4-d]pyridazin-1-amine] is 11-fold lower in Ki: 108 nM for the first, 9.58 nM for the second. The second binds more tightly here.

Cc1c(C#N)cccc1[C@@H](C)Nc1nnc(C)c2cnc(N3CC[C@H](N(C)C)C3)cc12 [Example 12-69] and Cc1c(C#N)cccc1[C@@H](C)Nc1nnc(C)c2cnc(N3CCN4CCCC[C@@H]4C3)cc12 [Example 12-86] are within 1.5-fold of each other in Ki: 0.93 nM for the first, 0.98 nM for the second.

Cc1c(F)cccc1[C@@H](C)Nc1nnc(C)c2cnc(N3CC(C)(O)C3)cc12 [Example 12-81] and Cc1c(C#N)cc(F)cc1[C@@H](C)Nc1nnc(C)c2cnc(N3CC(C)(O)C3)cc12 [Example 12-107] are within 1.5-fold of each other in Ki: 29 nM for the first, 35.6 nM for the second.

First: CNCc1cccc([C@@H](C)Nc2nnc(C)c3cc(OC)c(OC)cc23)c1C [Example 5-3, (R)-6,7-dimethoxy-4-methyl-N-(1-(2-methyl-3-((methylamino)methyl)phenyl)ethyl)phthalazin-1-amine]
Second: Cc1c(C#N)cccc1[C@@H](C)Nc1nnc(C)c2cnc(N3C[C@H]4CC[C@@H]3CN4CCO)cc12 [Example 12-89]
The Ki of the first is 1600-fold higher: 390 nM for the first, 0.25 nM for the second.

Compared with Cc1nnc(N[C@H](C)c2cccc(C(F)F)c2F)c2cc(N3C[C@H]4C[C@@H]3CO4)ncc12 [Example 12-99], CCN1CCN(c2cc3c(N[C@H](C)c4cccc(C(F)F)c4F)nnc(C)c3cn2)CC1 [Example 12-102] is 3.7-fold lower in Ki: 0.93 nM for the first, 0.25 nM for the second.

Cc1nnc(N[C@H](C)c2cc(F)cc(C#N)c2F)c2cc(N3CCN4CCOC[C@@H]4C3)ncc12 [Example 12-120] and Cc1nnc(N[C@H](C)c2cc(F)cc(C#N)c2F)c2cc(N3CCC(C)(N(C)C)CC3)ncc12 [Example 12-123] are within 1.5-fold of each other in Ki: 49.8 nM for the first, 50.4 nM for the second.

Compared with Cc1c([C@@H](C)Nc2nnc(C)c3cnc(N4CC(C)(O)C4)cc23)cc(F)cc1C(F)(F)F [Example 12-111], Cc1c([C@@H](C)Nc2nnc(C)c3cnc(N4CC(C)(N(C)C)C4)cc23)cc(F)cc1C(F)(F)F [Example 12-110] is 2.3-fold lower in Ki: 8.09 nM for the first, 3.54 nM for the second.

Same assay, conditions: read-out: Ki, Inhibition of Labeled Tracer Binding to SOS1

Cc1c(C#N)cccc1[C@@H](C)Nc1nnc(C)c2ccc(N3CC(C)(N4CCOCC4)C3)cc12 [Example 10-83, (R)-2-methyl-3-(1-((4-methyl-7-(3-methyl-3-morpholinoazetidin-1-yl)phthalazin-1-yl)amino)ethyl)benzonitrile Formate salt] and Cc1c(C#N)cccc1[C@@H](C)Nc1nnc(C)c2ccc(N3CC4(CCOC4)C3)cc12 [Example 10-80, (R)-2-methyl-3-(1-((4-methyl-7-(6-oxa-2-azaspiro[3.4]octan-2-yl)phthalazin-1-yl)amino)ethyl)benzonitrile Hydrochloride salt] are within 1.5-fold of each other in Ki: 4.54 nM for the first, 5.75 nM for the second.
